Like-named read-outs stand apart in the source and are kept apart here.
Legend:
CDK2/cyclin A = target: T1, CDK2/cyclin A (Homo sapiens, UniProt P24941); assay: Inhibition of CDK2/cyclin A retinoblastoma kinase activity; format: biochemical; conditions: read-out: Ki CDK 2/A
T1 construct: made in house; host or cells: CDK2: insect cells (baculovirus); cyclin A: E. coli, then limited proteolysis
Description: Cyclin-dependent kinase activity was measured by quantifying the enzyme-catalyzed, time-dependent incorporation of radioactive phosphate from [^32P]ATP or [^33P]ATP into a protein substrate. Unless noted otherwise, assays were performed in 96-well plates in a total volume of 50 μL, in the presence of 10 mM HEPES (N-[2-hydroxyethyl]piperazine-N′-[2-ethanesulfonic acid]) (pH 7.4), 10 mM MgCl2, 25 μM adenosine triphosphate (ATP), 1 mg/mL ovalbumin, 5 μg/mL leupeptin, 1 mM dithiothreitol, 10 mM β-glycerophosphate, 0.1 mM sodium vanadate, 1 mM sodium fluoride, 2.5 mM ethylene glycol-bis(β-aminoethyl ether)-N,N,N′N′-tetraacetic acid (EGTA), 2% (v/v) dimethylsulfoxide, and 0.03-0.4 μCi [^32/33P]ATP per reaction. Reactions were initiated with enzyme, incubated at 30° C., and terminated after 20 minutes by the addition of ethylenediaminetetraacetic acid (EDTA) to 250 mM. The phosphorylated substrate was then captured on a nitrocellulose or phosphocellulose membrane using a 96-well filtration manifold, and unincorporated radioactivity was removed by repeated washing with 0.85% phosphoric acid. Radioactivity was quantified by exposing the dried membranes to a phosphorimager.
(§1) Apparent Ki values were measured by assaying enzyme activity in the presence of different inhibitor compound concentrations and subtracting the background radioactivity measured in the absence of enzyme. The kinetic parameters (kcat, Km for ATP) were measured for each enzyme under the usual assay conditions by determining the dependence of initial rates on ATP concentration. Inhibition data were fit to an equation for competitive inhibition using Kaleidagraph (Synergy Software), or were fit to an equation for competitive tight-binding inhibition using the software KineTic (BioKin, Ltd.).
CDK2 was purified using published methodology (Rosenblatt et al., “Purification and Crystallization of Human Cyclin-dependent Kinase 2,” J. Mol. Biol., vol. 230, 1993, pp. 1317-1319) from insect cells that had been infected with a baculovirus expression vector. […] Purified, proteolyzed cyclin A was included in the assay at a three- to five-fold molar excess to CDK2. Alternatively, a complex of CDK2 and proteolyzed cyclin A was prepared and purified by gel filtration. The substrate for this assay was the same Rb substrate fragment used for the CDK4 assays, and the methodology of the CDK2/cyclin A and the CDK4/cyclin D3 assays was essentially the same, except that CDK2 was present at 150 nM or 5 nM. Ki values were measured as described above.

Saos-2 = assay: Inhibition of cell growth, MTT assay, Saos-2; format: cell-based; conditions: Saos-2, MTT assay; for IC50 / IC90: Homo sapiens; for % inhibition of growth in parentheses after >25: concentration not given
Description: (§2) The water-insoluble purple formazan product was then detected spectrophotometrically. […] Plates were incubated for four hours before addition of inhibitor compounds. Different concentrations of inhibitor compounds were added in 0.5% (v/v) dimethylsulfoxide (15 μL/well), and cells were incubated at 37° C. (5% CO2) for four to six days (depending on cell type). At the end of the incubation, MTT was added to a final concentration of 0.2 mg/mL, and cells were incubated for 4 hours more at 37° C. After centrifugation of the plates and removal of medium, the absorbance of the formazan (solubilized in dimethylsulfoxide) was measured at 540 nm.

HCT116 = assay: Inhibition of cell growth, MTT assay, HCT116; format: cell-based, human; conditions: for IC50 / IC90: Homo sapiens, HCT-116; for % inhibition of growth in parentheses after >25: concentration not given
Description: as §2

U2-OS = assay: Inhibition of cell growth, MTT assay, U2-OS; format: cell-based; conditions: for IC50 / IC90: Homo sapiens, U2OS; for % inhibition of growth in parentheses after >25: concentration not given
Description: as §2

[1] = target: T2, complex of human CDK4 and cyclin D3 (Homo sapiens, UniProt P11802); assay: Inhibition of CDK4/cyclin D retinoblastoma kinase activity (D-type cyclin is D3); format: biochemical; conditions: superscript a: D-type cyclin is D3; apparent Ki; read-out: Ki CDK 4/D
T2 construct: made in house; host or cells: insect cells, co-infected with baculovirus
Description: Cyclin-dependent kinase activity was measured by quantifying the enzyme-catalyzed, time-dependent incorporation of radioactive phosphate from [^32P]ATP or [^33P]ATP into a protein substrate. […] Reactions were initiated with enzyme, incubated at 30° C., and terminated after 20 minutes by the addition of ethylenediaminetetraacetic acid (EDTA) to 250 mM. […] Radioactivity was quantified by exposing the dried membranes to a phosphorimager.
as §1
Phosphorylated Rb substrate was captured by microfiltration on a nitrocellulose membrane and quantified using a phosphorimager as described above. For measurement of tight-binding inhibitors, the enzyme complex concentration was lowered to 5 nM, and the assay duration was extended to 60 minutes, during which the time-dependence of product formation was linear.

T2 sequence (P11802 whole entry): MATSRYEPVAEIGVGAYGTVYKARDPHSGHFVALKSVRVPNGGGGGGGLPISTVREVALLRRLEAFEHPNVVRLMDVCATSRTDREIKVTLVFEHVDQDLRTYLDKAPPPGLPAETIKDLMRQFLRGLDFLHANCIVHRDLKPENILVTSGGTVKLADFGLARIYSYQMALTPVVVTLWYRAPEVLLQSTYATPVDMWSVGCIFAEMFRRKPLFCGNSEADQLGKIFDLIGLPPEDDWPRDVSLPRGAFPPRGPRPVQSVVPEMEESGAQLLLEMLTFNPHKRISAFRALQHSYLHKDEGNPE
T2 sequence (P30281 whole entry partner): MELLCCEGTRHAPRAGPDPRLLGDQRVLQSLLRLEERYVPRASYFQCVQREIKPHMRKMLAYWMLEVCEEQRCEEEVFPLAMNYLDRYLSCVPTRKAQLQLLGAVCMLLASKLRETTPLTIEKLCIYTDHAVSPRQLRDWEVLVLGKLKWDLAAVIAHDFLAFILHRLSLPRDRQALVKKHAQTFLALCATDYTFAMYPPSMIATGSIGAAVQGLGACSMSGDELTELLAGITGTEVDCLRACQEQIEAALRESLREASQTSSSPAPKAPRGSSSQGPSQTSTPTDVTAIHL

SMILES	Ki (CDK2/cyclin A)	IC50 (Saos-2)	IC90 (Saos-2)	IC50 (HCT116)	IC90 (HCT116)	IC50 (U2-OS)	IC90 (U2-OS)	Ki [1]	% inhibition of growth in parentheses after >25 (Saos-2)	% inhibition of growth in parentheses after >25 (HCT116)	% inhibition of growth in parentheses after >25 (U2-OS)	Ki (CDK2/cyclin A; μM)
NC(=O)c1ccc(Nc2nc(N)c(C(=O)c3c(F)cccc3C(F)(F)F)s2)cc1 [C(113), 4-[4-Amino-5-(2-fluoro-6-trifluoromethyl-benzoyl)-thiazol-2-ylamino]-benzamide]	0.238 µM	2800 nM	9000 nM	3800 nM	8000 nM	8000 nM	19000 nM	17.3 nM				
Nc1nc(Nc2ccc(C(=O)C3COC(=O)[C@H]3N)cc2)sc1C(=O)c1c(Cl)cncc1Cl (stereo partly drawn) [C(88), trans-3RS-Amino-4RS-{4-[4-amino-5-(3,5-dichloropyridine-4-carbonyl)-thiazol-2-ylamino]-benzoyl}-dihydro-furan-2-one]	0.305 µM	22000 nM	> 25000 nM	19000 nM	> 25000 nM	> 25000 nM		65 nM	(56%)	70%	26%	
Cc1ncsc1C(=O)c1sc(Nc2ccc(S(N)(=O)=O)cc2)nc1N [C(47), 4-[4-Amino-5-(4-methyl-thiazole-5-carbonyl)-thiazol-2-ylamino]-benzenesulfonamide]	0.026 µM	2500 nM	5100 nM	4200 nM	7800 nM	10000 nM	20000 nM	30 nM				
Cc1ccc(C(=O)c2sc(Nc3cccnc3)nc2N)c(C)c1 [C(21), [4-Amino-2-(pyridin-3-ylamino)-thiazol-5-yl]-(2,4-dimethyl-phenyl)-methanone]	0.48 µM	13000 nM	23000 nM	9000 nM	22000 nM	22000 nM	> 25000 nM	117 nM			57%	
NC(=O)N1CCN(c2ccc(Nc3nc(N)c(C(=O)c4c(F)cccc4F)s3)cc2)CC1 [C(123), {4-Amino-2-[4-(4-carbamoyl-piperazin-1-yl)-phenylamino]-thiazol-5-yl}-(2,6-difluoro-phenyl)-methanone]	0.164 µM	2900 nM	5700 nM	2700 nM	7000 nM	7100 nM	12000 nM	15.4 nM				
CC(=O)Nc1ccc(Cl)c(C(=O)c2sc(Nc3ccc4nc[nH]c4c3)nc2N)c1Cl [C(82), N-{3-[4-Amino-2-(1H-benzoimidazol-6-ylamino)-thiazole-5-carbonyl]-2,4-dichloro-phenyl}-acetamide]	0.467 µM	> 25000 nM		> 25000 nM		> 25000 nM		44.2 nM	15%	1%	1%	
COc1ccc(Nc2nc(N)c(C(=O)c3ccccc3I)s2)cc1 [C(12), [4-Amino-2-(4-methoxy-phenylamino)-thiazol-5-yl]-(2-iodo-phenyl)-methanone]	0.67 µM	2100 nM	4800 nM	2000 nM	5000 nM	1900 nM	6000 nM	27 nM				
CC(=O)N1CCN(c2ccc(Nc3nc(N)c(C(=O)c4c(F)cccc4F)s3)cc2)CC1 [C(111), 2-[4-(1-Acetyl-piperazin-4-yl)-phenylamino]-4-amino-thiazol-5-yl-(2,6-difluorophenyl)-methanone]	0.216 µM	3800 nM	5900 nM	1700 nM	3800 nM	3000 nM	5500 nM	21 nM				
Nc1nc(Nc2ccc3nc[nH]c3c2)sc1C(=O)c1c(Cl)cccc1Cl [C(52), [4-Amino-2-(1H-benzoimidazol-6-ylamino)-thiazol-5-yl]-(2,6-dichloro-phenyl)-methanone]	0.105 µM	9000 nM	22000 nM	8500 nM	17000 nM	15000 nM	23000 nM	11 nM				
Nc1nc(Nc2ccc(S(N)(=O)=O)cc2)sc1C(=O)c1cc(Cl)sc1Cl [C(92), 4-[4-Amino-5-(2,5-dichloro-thiophene-3-carbonyl)-thiazol-2-ylamino]-benzenesulfonamide]	0.0094 µM							63 nM				
Cc1cc([N+](=O)[O-])sc1C(=O)c1sc(Nc2ccc3nc[nH]c3c2)nc1N [C(78), [4-Amino-2-(1H-benzoimidazol-6-ylamino)-thiazol-5-yl]-(3-methyl-5-nitro-thiophen-2-yl)-methanone]	0.083 µM							32 nM				
CCOC(=O)CC(C)Nc1nc(N)c(C(=O)c2sccc2C)s1 (racemic) [C(46), Ethyl 3RS-[4-Amino-5-(3-methyl-thiophene-2-carbonyl)-thiazol-2-ylamino]-butyrate]	1.79 µM							244 nM				
COC(=O)c1sc(Nc2ccc3nc[nH]c3c2)nc1N [A(12), 4-Amino-2-(1H-benzoimidazol-6-ylamino)-thiazole-5-carboxylic Acid Methyl Ester]	4.1 µM							9400 nM				
Cc1ccc(C(=O)c2sc(Nc3ccc(-n4ccnc4)cc3)nc2N)c(C)c1 [C(41), [4-Amino-2-(4-imidazol-1-yl-phenylamino)-thiazol-5-yl]-(2,4-dimethyl-phenyl)-methanone]	0.336 µM							350 nM				
Cc1cncc(C)c1C(=O)c1sc(Nc2ccc(S(N)(=O)=O)cc2)nc1N [C(59), [4-Amino-2-(4-sulfamoyl-phenylamino)-thiazol-5-yl]-(3,5-dimethyl-pyridin-4-yl)-methanone]	0.135 µM							100 nM				
Cc1c(C(=O)c2sc(Nc3ccc4nc[nH]c4c3)nc2N)ncn1C [C(74), [4-Amino-2-(1H-benzoimidazol-6-ylamino)-thiazol2-5-yl]-(1,5-dimethyl-1H-imidazol-4-yl)-methanone]								4800 nM				10.6 µM
Cc1cccc(C)c1C(=O)c1sc(Nc2ccc(N3CCOCC3)cc2)nc1N [C(62), [4-Amino-2-(4-morpholin-4-yl-phenylamino)-thiazol-5-yl]-(2,6-dimethyl-phenyl)-methanone]	1.71 µM							72 nM				
CC(=O)N1CCN(c2ccc(Nc3nc(N)c(C(=O)c4cc(C)sc4C)s3)cc2)CC1 [C(112), 2-[4-(1-Acetyl-piperazin-4-yl)-phenylamino]-4-amino-thiazol-5-yl-(2,5-dimethyl-thiophen-3-yl)-methanone]	0.408 µM							23 nM				
Cc1ccsc1C(=O)c1sc(Nc2ccc(N3CCN(C(=O)OC(C)(C)C)CC3)cc2)nc1N [C(104), 4-Amino-2-[4-(1-tert-butoxycarbonyl-piperazine-4-yl)-phenylamino]-thiazol-5-yl-(3-methyl-thiophen-2-yl)-methanone]	0.73 µM							190 nM				
Nc1nc(Nc2ccc3nc[nH]c3c2)sc1C(=O)c1sc(Br)cc1Br [C(72), [4-Amino-2-(1H-benzoimidazol-6-ylamino)-thiazol-5-yl]-(3,5-dibromo-thiophen-2-yl)-methanone]	0.169 µM							13.5 nM				

— patent US6569878B1, “Substituted 4-amino-thiazol-2-yl compounds as cyclin-dependent kinase inhibitors” (Agouron Pharmaceuticals Inc., priority 1997, dated 2003)
